Converted amounts (≈) assume the structure as drawn. Where two headings read alike, the source gives them in different places.
Experiments:
mice spleen cells [1] = assay: Suppression of reaction of mice spleen cells to Concanavalin A, in vitro (MTT); format: cell-based, BDF1 mice
Procedure: (§1) To each well of 96 well microtiter plate were added 5×10^5 spleen cells of BDF1 mice suspended in 0.1 ml of RPMI 1640 medium supplemented with 10% bovine fetus serum (supplemented with 2 mM sodium hydrogen carbonate, 50 Units/ml of penicillin, 50 μg/ml of streptomycin, and 5×10^-5 M of 2-mercaptoethanol), and then, 5 μg/ml of Concanavalin A (Con A) or 10 μg/ml of lypopolysaccaride (LPS) and various concentrations of test substance, of which final volume was adjusted to 0.2 ml. Test substances were dissolved in dimethylsulfoxide (DMSO), diluted with RPMI 1640 stated above, and added to the wells so that final concentration of the substances becomes less than 10000 ng/ml. The 96-well microtiter plates were cultured at 37° C. for 3 days in an incubator which was maintained at the humidity of 100%, 5% of carbon dioxide and 95% of air. After cultivation is completed, […] of 6 mg/ml solution of MTT {3-(4,5-dimethylthiazol-2yl)-2,5 diphenyltetrazoliumbromide} (Sigma) is added to each well, which is cultured at 37° C. for […] under the same conditions. After cultivation is completed, formazan formed is dissolved by adding 50 μl of a solution of 20% dodecyl sodium sulfonate (SDS) in 0.02N hydrochloric acid and kept standing at 37° C. for 24 hours. The absorbance (OD) of the formazan which was produced in proportion to the number of alive cells, was determined by using immunoreader equipped with 570 nm filter (see The Journal of Immunological Methods, Vol.65, 55-63, 1983).
(§2) Cell growth inhibition rate and IC50 value were calculated according to the correlation between the concentration and the absorbance for each substance.

M. hyopneumoniae = assay: MIC, liquid dilution method, Mycoplasma hyopneumoniae; conditions: Mesomycoplasma hyopneumoniae
Eimeria tenella = assay: Growth inhibition activities to avian coccidium in primary chicken kidney cells; format: cell-based; conditions: Eimeria tenella; more than 80% of suppression rate regarded as effective; read-out: Effective dose (growth inhibition)
Procedure: The kidneys of SPF new born chicken was sterilely removed, which was treated with trypsin and the resultant primary kidney cells were cultured in 24-well plate. Monolayer culture after cultured for 3 days was treated simultaneously with compounds adjusted to predetermined concentration and sporozoit obtained by artificial excystation, which was cultured a 40° C. Premature and mature schizonts were observed under microscope, and the growth inhibition activities (suppression rate) for each treatment group were calculated at a proportion of the number of schizonts for the sporozoit-inoculated, compound-untreated control group (100%).

Clostridium perfringens = assay: microbe, parasite or virus in culture; format: cell-based, C. perfringens ATCC 13124
[2] = Cytotoxicity to primary chicken kidney culture cells; format: cell-based; conditions: primary chicken kidney cells
Serpulina hyodysenteriae = assay: MIC, agar dilution method, anaerobic, Serpulina hyodysenteriae; format: cell-based, S. hyodysenteriae ATCC 27164
Mycoplasma = assay: MIC to Mycoplasmas (summary in words); format: cell-based
mice spleen cells [3] = assay: Suppression of reaction of mice spleen cells to lypopolysaccaride (LPS), in vitro (MTT); format: cell-based, BDF1 mice
Procedure: as §1, §2

M. pneumoniae = assay: MIC, liquid dilution method, Mycoplasma pneumoniae; conditions: Mycoplasmoides pneumoniae
M. gallisepticum = assay: MIC, liquid dilution method, Mycoplasma gallisepticum; conditions: Mycoplasmoides gallisepticum
Aspergillus fumigatus = assay: Antifungal activity, micro-liquid dilution method, Aspergillus fumigatus; format: cell-based, Aspergillus fumigatus strain MA; conditions: Aspergillus fumigatus, 24 h, 30° C., read-out: Antifungal activities: IC50
Procedure: (§3) Antifungal activities of the compounds to Candida albicans (strain Ca-15) and Asperilhm fumigatus (strain MA), representative pathogenic fungi, were determined by micro-liquid dilution method using 96-well microplates. A fungal suspension stored under freezing was adjusted to 1×1 O^5 CFU/ml by medium, of which 100 μl portions were charged into each well. The compound of the present invention was dissolved in dimethylsulfoxide (DMSO). Using the resultant solution, 2-fold dilution series were prepared together with the fungal suspension charged into the wells. YNB medium and RPMI medium were used. After cultured for 24 hours at 30° C., evaluation was performed by detecting the turbidity (wave length: 595 nm) using microplate reader.

Candida albicans = assay: Antifungal activity, micro-liquid dilution method, Candida albicans; format: cell-based, Candida albicans strain Ca-15; conditions: Candida albicans, 24 h, 30° C., read-out: Antifungal activities: IC50
Procedure: as §3

Structure (SMILES): CCCCCc1cccc(OCOC)c1C1=NC(C2SCC(C(O)C(C)(C)C3=NC(C)(C(=O)OCOC)CS3)N2C)CS1 (centres unmarked) [Compound 18]
- suppression of the reaction to Con A of spleen cells (mice spleen cells [1]): suppressed
- inhibition at 0.039 µg/mL (mice spleen cells [1]; Mus musculus, 72 h, Con A, 39 ng/ml, read-out: Suppression rate): 14.7%
- inhibition at 0.078 µg/mL (mice spleen cells [1]; Mus musculus, 72 h, Con A, 78 ng/ml, read-out: Suppression rate): 25.7%
- inhibition at 0.156 µg/mL (mice spleen cells [1]; Mus musculus, 72 h, Con A, 156 ng/ml, read-out: Suppression rate): 75.5%
- inhibition at 0.312 µg/mL (mice spleen cells [1]; Mus musculus, 72 h, Con A, 312 ng/ml, read-out: Suppression rate): 94.9%
- inhibition at 0.625 µg/mL (mice spleen cells [1]; Mus musculus, 72 h, Con A, 625 ng/ml, read-out: Suppression rate): 98.6%
- IC50 (mice spleen cells [1]; Mus musculus, Con A): 0.101 µg/mL (≈ 0.154 µM)
- MIC (M. hyopneumoniae): 0.05 µg/mL (≈ 0.0765 µM)
- minimal effective concentration (Eimeria tenella): 10 µg/mL
- activity to Clostridium perflingens (Clostridium perfringens): showed the activity
- MCC [2]: > 10 µg/mL
- activity to Serpulina (Treponema) hyodysenteriae (Serpulina hyodysenteriae): showed the activity
- MICs to Mycoplasmas (Mycoplasma): low MICs
- suppression of the reaction to LPS of spleen cells (mice spleen cells [3]): suppressed
- inhibition at 0.039 µg/mL (mice spleen cells [3]; Mus musculus, 72 h, LPS, 39 ng/ml, read-out: Suppression rate): 27.4%
- inhibition at 0.078 µg/mL (mice spleen cells [3]; Mus musculus, 72 h, LPS, 78 ng/ml, read-out: Suppression rate): 41.5%
- inhibition at 0.156 µg/mL (mice spleen cells [3]; Mus musculus, 72 h, LPS, 156 ng/ml, read-out: Suppression rate): 74.6%
- inhibition at 0.312 µg/mL (mice spleen cells [3]; Mus musculus, 72 h, LPS, 312 ng/ml, read-out: Suppression rate): 93.4%
- inhibition at 0.625 µg/mL (mice spleen cells [3]; Mus musculus, 72 h, LPS, 625 ng/ml, read-out: Suppression rate): 101%
- IC50 (mice spleen cells [3]; Mus musculus, LPS): 0.084 µg/mL (≈ 0.128 µM)
- MIC (M. pneumoniae): 0.025 µg/mL (≈ 0.0382 µM)
- MIC (M. gallisepticum): 1.56 µg/mL (≈ 2.39 µM)

Structure (SMILES): CCCCCc1cccc(OCc2ccc(Cl)cc2)c1C1=NC(C2SCC(C(OCc3ccc(Cl)cc3)C(C)(C)C3=NC(C)(C(=O)OCc4ccc(Cl)cc4)CS3)N2C)CS1 (centres unmarked) [Compound 21]
- minimal effective concentration (Eimeria tenella): > 10 µg/mL
- MCC [2]: > 10 µg/mL

Structure (SMILES): CCCCCc1cccc(O)c1C1=NC(C2SCC(C(O)C(C)(C)C3=NC(C)(C(=O)OCc4ccc(Cl)cc4)CS3)N2C)CS1 (centres unmarked) [Compound 22]
- MIC (M. hyopneumoniae): 0.1 µg/mL (≈ 0.145 µM)
- minimal effective concentration (Eimeria tenella): 2.5 µg/mL
- MCC [2]: > 10 µg/mL
- MIC (M. pneumoniae): 0.39 µg/mL (≈ 0.565 µM)
- MIC (M. gallisepticum): > 3.13 µg/mL

Structure (SMILES): CCCCCc1cccc(O)c1C1=NC(C2SCC(C(O)C(C)(C)C3=NC(C)(C(=O)N(C)O)CS3)N2C)CS1 (centres unmarked) [Compound 25]
- IC50 (Aspergillus fumigatus; RPMI medium): 0.2 µg/mL (≈ 0.336 µM)
- IC50 (Aspergillus fumigatus; YNB medium): 50 µg/mL (≈ 84.1 µM)
- IC50 (Candida albicans; RPMI medium): 6.3 µg/mL (≈ 10.6 µM)
- IC50 (Candida albicans; YNB medium): 50 µg/mL (≈ 84.1 µM)

Structure (SMILES): CCCCCc1cccc(O)c1C1=NC(C2SCC(C(O)C(C)(C)C3=NC(C)(C(=O)NC(C)C(=O)OC)CS3)N2C)CS1 (centres unmarked) [Compound 28]
- MIC (M. hyopneumoniae): 0.1 µg/mL (≈ 0.154 µM)
- minimal effective concentration (Eimeria tenella): 10 µg/mL
- MCC [2]: > 10 µg/mL
- MICs to Mycoplasmas (Mycoplasma): low MICs
- MIC (M. pneumoniae): 0.05 µg/mL (≈ 0.0768 µM)
- MIC (M. gallisepticum): 0.39 µg/mL (≈ 0.599 µM)

Structure (SMILES): CCCCCc1cccc(O)c1C1=NC(C2SCC(C(O)C(C)(C)C3=NC(C)(C(=O)NCCO)CS3)N2C)CS1 (centres unmarked) [Compound 30]
- MIC (M. hyopneumoniae): 0.39 µg/mL (≈ 0.641 µM)
- minimal effective concentration (Eimeria tenella): 2.5 µg/mL
- MCC [2]: > 10 µg/mL
- MIC (M. pneumoniae): 0.2 µg/mL (≈ 0.328 µM)
- MIC (M. gallisepticum): 0.78 µg/mL (≈ 1.28 µM)

Structure (SMILES): CCCCCc1cccc(O)c1C1=NC(C2SCC(C(O)C(C)(C)C3=NC(C)(C(N)=O)CS3)N2C)CS1 (centres unmarked) [Compound 31]
- MIC (M. hyopneumoniae): 0.2 µg/mL (≈ 0.354 µM)
- MCC [2]: 10 µg/mL
- MIC (M. pneumoniae): 0.2 µg/mL (≈ 0.354 µM)
- MIC (M. gallisepticum): 0.39 µg/mL (≈ 0.69 µM)

Structure (SMILES): CCCCCc1cccc(O)c1C1=NC(C2SCC(C(O)C(C)(C)C3=NC(C)(CO)CS3)N2C)CS1 (centres unmarked) [Compound 32]
- MIC (M. hyopneumoniae): 0.05 µg/mL (≈ 0.0906 µM)
- minimal effective concentration (Eimeria tenella): 10 µg/mL
- MCC [2]: > 10 µg/mL
- MIC (M. pneumoniae): 0.025 µg/mL (≈ 0.0453 µM)
- MIC (M. gallisepticum): 0.39 µg/mL (≈ 0.707 µM)

From US6004952A, “Micacocidin derivatives” (Shinogi & Co., Ltd., priority 1996, dated 1999)
